Data reported in patent US12122761B2, “2-azaspiro[3.4]octane derivatives as M4 agonists” (NOVARTIS AG, priority 2019, dated 2024).

Experiments:
Type in all cases: cell-based
[1] = biological target: T1, human cloned CHRM5 receptor (M5_CHO) (Homo sapiens, UniProt P08912); assay: CHRM5 Ca++ Flux Assay (agonist mode, FDSS 7000EX); conditions: for M5 FDSS PA: Percent Activity measured to EC100 of Carbachol; for EC50: agonist mode, geometric mean if tested more than once, read-out: M5 FDSS EC50
T1 construct: expressed in transfected cells; host or cells: CHO (M5_CHO)
T1 sequence (P08912 1-532): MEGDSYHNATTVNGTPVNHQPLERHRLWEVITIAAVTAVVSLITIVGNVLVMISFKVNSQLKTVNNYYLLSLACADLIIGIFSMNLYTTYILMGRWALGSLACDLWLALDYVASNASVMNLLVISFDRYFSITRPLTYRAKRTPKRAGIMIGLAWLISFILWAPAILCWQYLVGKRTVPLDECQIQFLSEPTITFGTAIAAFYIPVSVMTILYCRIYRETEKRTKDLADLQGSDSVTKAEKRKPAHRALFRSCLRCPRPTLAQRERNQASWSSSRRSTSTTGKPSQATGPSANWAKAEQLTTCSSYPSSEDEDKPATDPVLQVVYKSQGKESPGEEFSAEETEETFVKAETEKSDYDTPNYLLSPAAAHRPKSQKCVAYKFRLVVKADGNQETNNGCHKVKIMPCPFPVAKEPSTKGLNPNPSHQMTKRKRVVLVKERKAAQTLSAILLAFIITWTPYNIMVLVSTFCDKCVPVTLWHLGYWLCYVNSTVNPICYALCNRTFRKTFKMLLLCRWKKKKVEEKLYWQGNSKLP
Method: (§1) The above examples were characterized by measuring the intracellular mobilization of Ca++ ions caused by signaling events mediated by the receptor. The Intra-cellular Calcium flux levels were captured by the highly sensitive Ca++ indicator, Calcium Assay Kit (BD Biosciences, Catalog Number 640178). The fluorescent activity from all receptors were monitored by the fluorescent imager, FDSS 7000EX (Hamamatsu) over a span of 3 minutes.
(§2) CHO-K1 cells stably expressing the human cloned CHRM3 receptor (M3_CHO cells) were grown and maintained in a monolayer culture with F12/HAM (Life Technologies) supplemented with 10% Fetal Bovine Serum, 1× Pen-Strep, and 0.4 mg/mL Geneticin in a humidified atmosphere (5% CO2) at 37° C. The cultures were grown to 80-9 0% confluency in T150 flasks (Corning) and washed with 1×DPBS and lifted with 0.05% Trypsin (Life Technologies). The cells were then spun (1K rpm, 3 minutes) and frozen using Recovery Cell Culture Freezing Media (Gibco Technologies). Cells were stored in liquid nitrogen and thawed a day before the assay. A similar procedure was used for cells stably expressing the human cloned CHRM5 receptor (M5_CHO).
(§3) Prior to the day of the assay, stable M3_CHO or M5_CHO cells were thawed and plated on Greiner 384 well black TC treated plates at 12K cells/well in F12/DMEM supplemented with 10% FBS (Hyclone) and kept overnight in a humidified atmosphere (5% CO2) at 37° C. The next day, cells were loaded with Ca^++ dye (BD Biosciences) using Loading Buffer (HBSS +Ca/+Mg, 20 mM HEPES, 2.5 mM Probenecid) and placed back in cell incubator for a minimum of 1 hour. After incubation, the dye was replaced with Assay Buffer (HBSS −Ca/−Mg, 20 mM HEPES, 2.5 mM Probenecid) and kept at room temperature in the dark before running on cell imager. The FDSS 7000EX (Hamamatsu) was used to acquire Ca^++ traces from cells treated with 11 point dose response of compounds in triplicate in order to generate dose response curves in agonist mode. All compounds were serially diluted in DMSO then prepared in Assay Buffer for Ca^++ flux studies. The dose response curves were generated from the average of triplicate wells obtained from each data point and used a non-linear regression of four parameter dose response algorithm. The Percent Activity (PA) was measured to EC100 of Carbachol.

[2] = biological target: T2, human cloned CHRM2 receptor (M2_CHO cells) (Homo sapiens, UniProt P08172); assay: CHRM2 Ca++ Flux Assay (agonist mode, FDSS 7000EX); conditions: for M2 FDSS PA: Percent Activity measured to EC100 of Carbachol
T2 construct: expressed in transfected cells; host or cells: CHO-K1
T2 sequence (P08172 1-466): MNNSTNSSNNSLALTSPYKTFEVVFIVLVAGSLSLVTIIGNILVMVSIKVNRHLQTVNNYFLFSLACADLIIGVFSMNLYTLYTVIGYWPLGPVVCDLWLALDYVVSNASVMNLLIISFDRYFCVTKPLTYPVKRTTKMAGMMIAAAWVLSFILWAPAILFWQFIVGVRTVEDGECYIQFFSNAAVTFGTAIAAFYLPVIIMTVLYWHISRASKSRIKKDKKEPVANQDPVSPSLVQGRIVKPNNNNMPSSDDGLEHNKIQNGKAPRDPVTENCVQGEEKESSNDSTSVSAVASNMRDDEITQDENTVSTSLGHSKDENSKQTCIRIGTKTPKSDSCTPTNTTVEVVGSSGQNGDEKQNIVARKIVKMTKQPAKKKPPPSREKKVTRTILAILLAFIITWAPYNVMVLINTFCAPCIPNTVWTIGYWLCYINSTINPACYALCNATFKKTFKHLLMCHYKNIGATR
Method: as §1
as §2, with “CHRM2” for “CHRM3”, “(M2_CHO” for “(M3_CHO”, “assay.” for “assay. A similar procedure was used for cells stably expressing the human cloned CHRM5 receptor (M5_CHO).”
Prior to the day of the assay, stable M2 CHO cells were thawed and plated on Greiner 384 well TC treated plate at a density of 12K cells/well and kept overnight in a humidified atmosphere (5% CO2) at 37° C. The following day, the cells were loaded with Ca^++ dye (BD Biosciences) using Loading Buffer (HBSS +Ca/+Mg, 20 mM HEPES, 2.5 mM Probenecid) and placed back in cell incubator for a minimum of 1 hour and maximum of 2 hours. After incubation, the dye was replaced with Assay Buffer (HBSS −Ca/−Mg, 20 mM HEPES, 2.5 mM Probenecid) supplemented with 20 μM ATP (Sigma Aldrich) and kept at room temperature for 60 minutes prior before running on cell imager. The FDSS 7000EX (Hamamatsu) was used to acquire Ca^++ traces from cells in response to compound treatment and the data was used to generate dose response curves in agonist mode. All compounds were serially diluted in DMSO then prepared in Assay Buffer for Ca^++ flux studies. The dose response curves were generated from the average of triplicate wells obtained from each data point and used a non-linear regression of four parameter dose response algorithm. The Percent Activity (PA) was measured to EC100 of Carbachol.

[3] = biological target: T3, human cloned CHRM3 receptor (M3_CHO cells) (Homo sapiens, UniProt P20309); assay: CHRM3 Ca++ Flux Assay (agonist mode, FDSS 7000EX); conditions: for M3 FDSS PA: Percent Activity measured to EC100 of Carbachol; for EC50: agonist mode, geometric mean if tested more than once, read-out: M3 FDSS EC50
T3 construct: expressed in transfected cells; host or cells: CHO-K1
Method: as §1, §2, §3

T3 sequence (P20309 whole entry): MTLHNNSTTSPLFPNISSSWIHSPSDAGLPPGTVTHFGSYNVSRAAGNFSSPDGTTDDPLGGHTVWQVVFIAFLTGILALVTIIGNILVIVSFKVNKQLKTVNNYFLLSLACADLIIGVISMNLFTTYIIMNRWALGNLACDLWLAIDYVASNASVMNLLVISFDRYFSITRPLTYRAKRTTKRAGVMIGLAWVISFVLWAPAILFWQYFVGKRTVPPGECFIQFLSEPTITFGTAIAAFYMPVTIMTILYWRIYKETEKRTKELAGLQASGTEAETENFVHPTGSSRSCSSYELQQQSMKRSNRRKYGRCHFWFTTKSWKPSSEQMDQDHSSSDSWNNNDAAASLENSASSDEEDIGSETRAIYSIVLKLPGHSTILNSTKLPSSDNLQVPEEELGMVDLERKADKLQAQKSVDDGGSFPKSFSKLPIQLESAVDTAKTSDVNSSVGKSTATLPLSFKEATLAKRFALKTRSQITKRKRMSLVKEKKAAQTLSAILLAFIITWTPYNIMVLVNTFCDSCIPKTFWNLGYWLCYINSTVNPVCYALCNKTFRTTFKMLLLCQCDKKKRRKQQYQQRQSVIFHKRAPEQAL

SMILES	M5 FDSS PA [1] [%]	EC50 [1] [µM]	M2 FDSS PA [2] [%]	M3 FDSS PA [3] [%]	EC50 [3] [µM]	EC50 ([2]; agonist mode, geometric mean if tested more than once, read-out: M2 FDSS EC50) [µM]
COC(C)(C)CCOc1ccccc1C1CCN([C@@H]2CCC3(C2)CN(C(=O)C2(F)CC2)C3)CC1 (single isomer, unassigned) [Example 7FF, (R)-(1-fluorocyclopropyl)(6-(4-(2-(3-methoxy-3-methylbutoxy)phenyl)piperidin-1-yl)-2-azaspiro[3.4]octan-2-yl)methanone or (S)-(1-fluorocyclopropyl)(6-(4-(2-(3-methoxy-3-methylbutoxy)phenyl)piperidin-1-yl)-2-azaspiro[3.4]octan-2-yl)methanone]	0	> 25	0	0	> 25	–
O=C(N1CC2(CC[C@@H](N3CCC(c4ccccc4OCc4ncccn4)CC3)C2)C1)C1(F)CC1 (single isomer, unassigned) [Example 7M, (R)-(1-fluorocyclopropyl)(6-(4-(2-(pyrimidin-2-ylmethoxy)phenyl)piperidin-1-yl)-2-azaspiro[3.4]octan-2-yl)methanone or (S)-(1-fluorocyclopropyl)(6-(4-(2-(pyrimidin-2-ylmethoxy)phenyl)piperidin-1-yl)-2-azaspiro[3.4]octan-2-yl)methanone]	0	> 25	0	0	> 25	–
O=C(N1CC2(CC[C@@H](N3CCC(c4ccccc4OCCO)CC3)C2)C1)C1(F)CC1 (single isomer, unassigned) [Example 7N, (R)-(1-fluorocyclopropyl)(6-(4-(2-(2-hydroxyethoxy)phenyl)piperidin-1-yl)-2-azaspiro[3.4]octan-2-yl)methanone or (S)-(1-fluorocyclopropyl)(6-(4-(2-(2-hydroxyethoxy)phenyl)piperidin-1-yl)-2-azaspiro[3.4]octan-2-yl)methanone]	0	> 25	0	0	> 25	–
O=C(N1CC2(CC[C@@H](N3CCC(c4ccccc4OCC4CC4)CC3)C2)C1)C1(F)CC1 (single isomer, unassigned) [Example 7O, (R)-(6-(4-(2-(cyclopropylmethoxy)phenyl)piperidin-1-yl)-2-azaspiro[3.4]octan-2-yl)(1-fluorocyclopropyl)methanone or (R)-(6-(4-(2-(cyclopropylmethoxy)phenyl)piperidin-1-yl)-2-azaspiro[3.4]octan-2-yl)(1-fluorocyclopropyl)methanone]	0	> 25	0	0	> 25	–
O=C1CCCN1CCOc1ccccc1C1CCN([C@@H]2CCC3(C2)CN(C(=O)C2(F)CC2)C3)CC1.O=CO (single isomer, unassigned) [Example 7P, (R)-1-(2-(2-(1-(2-(1-fluorocyclopropane-1-carbonyl)-2-azaspiro[3.4]octan-6-yl)piperidin-4-yl)phenoxy)ethyl)pyrrolidin-2-one formate salt or (S)-1-(2-(2-(1-(2-(1-fluorocyclopropane-1-carbonyl)-2-azaspiro[3.4]octan-6-yl)piperidin-4-yl)phenoxy)ethyl)pyrrolidin-2-one formate salt]	0	> 25	0	0	> 25	–
O=C(N1CC2(CC[C@@H](N3CCC(c4ccccc4OCC4CCOCC4)CC3)C2)C1)C1(F)CC1 (single isomer, unassigned) [Example 7Q, (R)-(1-fluorocyclopropyl)(6-(4-(2-((tetrahydro-2H-pyran-4-yl)methoxy)phenyl)piperidin-1-yl)-2-azaspiro[3.4]octan-2-yl)methanone or (S)-(1-fluorocyclopropyl)(6-(4-(2-((tetrahydro-2H-pyran-4-yl)methoxy)phenyl)piperidin-1-yl)-2-azaspiro[3.4]octan-2-yl)methanone]	0	> 25	0	0	> 25	–
Cc1nnc(COc2ccccc2C2CCN([C@@H]3CCC4(C3)CN(C(=O)C3(F)CC3)C4)CC2)s1 (single isomer, unassigned) [Example 7R, (R)-(1-fluorocyclopropyl)(6-(4-(2-((5-methyl-1,3,4-thiadiazol-2-yl)methoxy)phenyl)piperidin-1-yl)-2-azaspiro[3.4]octan-2-yl)methanone or (S)-(1-fluorocyclopropyl)(6-(4-(2-((5-methyl-1,3,4-thiadiazol-2-yl)methoxy)phenyl)piperidin-1-yl)-2-azaspiro[3.4]octan-2-yl)methanone]	0	> 25	15	0	> 25	6.59
CCOc1ccccc1C1CCN([C@@H]2CCC3(C2)CN(C(=O)C2(F)CC2)C3)CC1 (single isomer, unassigned) [Example 7S, (R)-(6-(4-(2-ethoxyphenyl)piperidin-1-yl)-2-azaspiro[3.4]octan-2-yl)(1-fluorocyclopropyl)methanone or (S)-(6-(4-(2-ethoxyphenyl)piperidin-1-yl)-2-azaspiro[3.4]octan-2-yl)(1-fluorocyclopropyl)methanone]	0	> 25	0	0	> 25	–
